Measured values from publication PMC9078972 (RSC Advances, 2018).
In brackets after ≈: the same amount, converted by molar mass.

Assays:
[1] = tested on: Mycobacterium tuberculosis H37Ra; assay: microbe, parasite or virus in culture; type: cell-based
[2] = Cytotoxicity against VERO cells; type: cell-based; details: African green monkey, VERO cells (kidney epithelial cells)
physchem = details: 37 °C, water, thermodynamic from solid
in vitro [3] = details: human, microsomes, pH 7.5
in vitro [4] = details: rat, microsomes, pH 7.5
in vitro [5] = details: mouse, microsomes, pH 7.5
in vitro [6] = details: dog; for Papp A→B: MDCK-MDR1, pH 7.4, Mean Papp A to B, A to B
CYP2C19 = CYP2C19 (Homo sapiens, UniProt P33261); assay: biochemical; details: CYP inhibitory IC50, 2C19
Chain of CYP2C19 (P33261 whole entry): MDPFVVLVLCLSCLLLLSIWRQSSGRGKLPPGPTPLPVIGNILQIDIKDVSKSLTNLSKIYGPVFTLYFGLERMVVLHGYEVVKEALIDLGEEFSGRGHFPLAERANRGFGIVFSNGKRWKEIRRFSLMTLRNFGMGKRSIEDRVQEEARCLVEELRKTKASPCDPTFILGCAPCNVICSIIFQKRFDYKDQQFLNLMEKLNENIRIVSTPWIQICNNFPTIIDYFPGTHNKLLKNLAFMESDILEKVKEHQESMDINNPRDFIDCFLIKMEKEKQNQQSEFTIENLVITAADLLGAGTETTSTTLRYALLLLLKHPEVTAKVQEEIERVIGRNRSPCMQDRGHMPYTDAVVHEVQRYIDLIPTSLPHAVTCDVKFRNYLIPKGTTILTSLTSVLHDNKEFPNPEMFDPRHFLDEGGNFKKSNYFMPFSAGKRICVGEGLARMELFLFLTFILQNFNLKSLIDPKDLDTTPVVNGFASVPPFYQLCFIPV

CYP3A4 = CYP3A4 (Homo sapiens, UniProt P08684); assay: biochemical
Chain of CYP3A4 (P08684 whole entry): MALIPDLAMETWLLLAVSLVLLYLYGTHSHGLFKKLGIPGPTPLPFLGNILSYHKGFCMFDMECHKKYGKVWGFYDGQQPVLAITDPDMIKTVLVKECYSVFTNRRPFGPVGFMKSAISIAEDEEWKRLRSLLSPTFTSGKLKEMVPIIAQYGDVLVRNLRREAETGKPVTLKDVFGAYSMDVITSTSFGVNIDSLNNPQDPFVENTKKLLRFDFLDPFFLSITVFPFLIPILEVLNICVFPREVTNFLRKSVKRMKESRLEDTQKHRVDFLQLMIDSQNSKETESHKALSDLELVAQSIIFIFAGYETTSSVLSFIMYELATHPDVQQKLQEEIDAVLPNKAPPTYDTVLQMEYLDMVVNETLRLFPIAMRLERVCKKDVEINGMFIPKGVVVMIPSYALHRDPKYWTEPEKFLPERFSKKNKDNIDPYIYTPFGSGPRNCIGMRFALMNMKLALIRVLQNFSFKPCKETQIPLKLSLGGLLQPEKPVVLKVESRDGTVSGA

[7] = Pharmacokinetic study in ICR mice; type: in vivo; details: mouse

O=c1nc(N2CCC(Oc3ccc(OC(F)(F)F)cc3)CC2)sc2c([N+](=O)[O-])cc(C(F)(F)F)cc12 [Compound 3h, 8-Nitro-2-(4-(4-(trifluoromethoxy)phenoxy)piperidin-1-yl)-6-(trifluoromethyl)-4H-benzo[e][1,3]thiazin-4-one] showed an MIC [1] of 0.008 µM (≈ 4.28 ng/mL) and a CC50 [2] of over 10 µM.
With O=c1nc(N2CCC(Oc3ccc(F)cc3)CC2)sc2c([N+](=O)[O-])cc(C(F)(F)F)cc12 [Compound 3b, 2-(4-(4-Fluorophenoxy)piperidin-1-yl)-8-nitro-6-(trifluoro-methyl)-4H-benzo[e][1,3]-thiazin-4-one] the MIC [1] was 0.004 µM (≈ 1.88 ng/mL).
In the case of CCCCN1CCN(c2nc(=O)c3cc(C(F)(F)F)cc([N+](=O)[O-])c3s2)CC1=O [Compound 1d, 2-(4-Butyl-3-oxopiperazin-1-yl)-8-nitro-6-(trifluoromethyl)-4H-benzo[e][1,3]-thiazin-4-one], the CC50 [2] is reported as over 10 µM.
Work on CCOC(=O)C(C)N1CCN(c2nc(=O)c3cc(C(F)(F)F)cc([N+](=O)[O-])c3s2)CC1 (stereo not shown) [Compound 2d, Ethyl 2-(4-(8-nitro-4-oxo-6-(trifluoromethyl)-4H-benzo[e][1,3]thiazin-2-yl)-piperazin-1-yl)propanoate] yielded an MIC [1] of 0.008 µM (≈ 3.68 ng/mL).
Work on O=c1nc(N2CCC(Oc3ccccn3)CC2)sc2c([N+](=O)[O-])cc(C(F)(F)F)cc12 [Compound 3k, 8-Nitro-2-(4-(pyridin-2-yloxy)piperidin-1-yl)-6-(trifluoro-methyl)-4H-benzo[e][1,3]thiazin-4-one] yielded an MIC [1] of 0.031 µM (≈ 14 ng/mL) and a CC50 [2] of over 10 µM.
In the case of O=C(OC1CCN(c2nc(=O)c3cc(C(F)(F)F)cc([N+](=O)[O-])c3s2)CC1)c1ccc(F)cc1 [Compound 2h, 1-(8-Nitro-4-oxo-6-(trifluoromethyl)-4H-benzo[e][1,3]thiazin-2-yl)piperidin-4-yl 4-fluorobenzoate], the MIC [1] is reported as at most 0.002 µM.
With Cc1ccccc1OC1CCN(c2nc(=O)c3cc(C(F)(F)F)cc([N+](=O)[O-])c3s2)CC1 [Compound 3g, 8-Nitro-2-(4-(o-tolyloxy)piperidin-1-yl)-6-(trifluoromethyl)-4H-benzo[e][1,3]thiazin-4-one] the MIC [1] was 0.016 µM (≈ 7.45 ng/mL) and the CC50 [2] was over 10 µM.
O=C1OCCC1N1CCN(c2nc(=O)c3cc(C(F)(F)F)cc([N+](=O)[O-])c3s2)CC1 (stereo not shown) [Compound 2f, 8-Nitro-2-(4-(2-oxotetrahydrofuran-3-yl)piperazin-1-yl)-6-(tri-fluoromethyl)-4H-benzo[e][1,3]thiazin-4-one] gave an MIC [1] of 0.064 µM (≈ 28.4 ng/mL) and a CC50 [2] of over 10 µM.
In the case of CN(C)c1ccc(C(=O)OC2CCN(c3nc(=O)c4cc(C(F)(F)F)cc([N+](=O)[O-])c4s3)CC2)cc1 [Compound 2o, 1-(8-Nitro-4-oxo-6-(trifluoromethyl)-4H-benzo[e][1,3]thiazin-2-yl)piperidin-4-yl 4-(dimethylamino)benzoate], the MIC [1] is reported as 0.031 µM (≈ 16.2 ng/mL) and the CC50 [2] is reported as over 10 µM.
In the case of COc1ccccc1C(=O)OC1CCN(c2nc(=O)c3cc(C(F)(F)F)cc([N+](=O)[O-])c3s2)CC1 [Compound 2m, 1-(8-Nitro-4-oxo-6-(trifluoromethyl)-4H-benzo[e][1,3]thiazin-2-yl)piperidin-4-yl 2-methoxybenzoate], the MIC [1] is reported as 0.063 µM (≈ 32.1 ng/mL) and the CC50 [2] is reported as over 10 µM.
In the case of O=C(OC1CCN(c2nc(=O)c3cc(C(F)(F)F)cc([N+](=O)[O-])c3s2)CC1)c1ccc(C(F)(F)F)cc1 [Compound 2k, 1-(8-Nitro-4-oxo-6-(trifluoromethyl)-4H-benzo[e][1,3]thiazin-2-yl)piperidin-4-yl 4-(trifluoromethyl)benzoate], the MIC [1] is reported as 0.008 µM (≈ 4.38 ng/mL) and the CC50 [2] is reported as over 10 µM.
O=C1CN(c2nc(=O)c3cc(C(F)(F)F)cc([N+](=O)[O-])c3s2)CCN1C1CCCCC1 [Compound 1b, 2-(4-Cyclohexyl-3-oxopiperazin-1-yl)-8-nitro-6-(trifluoromethyl)-4H-benzo[e]-[1,3]thiazin-4-one] showed an MIC [1] of 0.017 µM (≈ 7.76 ng/mL), a CC50 [2] of over 10 µM and a solubility (physchem) of 1.63 µg/mL (≈ 3.57 µM).
Compound CCOC(=O)CC1CCN(c2nc(=O)c3cc(C(F)(F)F)cc([N+](=O)[O-])c3s2)CC1 [Compound 2c, Ethyl 2-(1-(8-nitro-4-oxo-6-(trifluoromethyl)-4H-benzo[e][1,3]thiazin-2-yl)-piperidin-4-yl)acetate] has an MIC [1] of 0.016 µM (≈ 7.13 ng/mL) and a CC50 [2] of over 10 µM.
Compound O=C(OC1CCN(c2nc(=O)c3cc(C(F)(F)F)cc([N+](=O)[O-])c3s2)CC1)c1ccccc1Cl [Compound 2j, 1-(8-Nitro-4-oxo-6-(trifluoromethyl)-4H-benzo[e][1,3]thiazin-2-yl)piperidin-4-yl 2-chlorobenzoate] has an MIC [1] of 0.008 µM (≈ 4.11 ng/mL) and a CC50 [2] of over 10 µM.
With O=c1nc(N2CCC(Oc3ccc(F)cn3)CC2)sc2c([N+](=O)[O-])cc(C(F)(F)F)cc12 [Compound 3l, 2-(4-((5-Fluoropyridin-2-yl)oxy)piperidin-1-yl)-8-nitro-6-(tri-fluoromethyl)-4H-benzo[e][1,3]thiazin-4-one] the MIC [1] was 0.031 µM (≈ 14.6 ng/mL) and the CC50 [2] was over 10 µM.
O=C1CN(c2nc(=O)c3cc(C(F)(F)F)cc([N+](=O)[O-])c3s2)CCN1C1CCCC1 [Compound 1a, 2-(4-Cyclopentyl-3-oxopiperazin-1-yl)-8-nitro-6(trifluoromethyl)-4H-benzo[e]-[1,3]thiazin-4-one] showed an MIC [1] of 0.013 µM (≈ 5.75 ng/mL), a CC50 [2] of over 10 µM and a solubility (physchem) of 7.37 µg/mL (≈ 16.7 µM). The half-life (in vitro [3]) was 72 min, the half-life (in vitro [4]) was 15.6 min and the half-life (in vitro [5]) was 9.4 min. The Papp B→A (in vitro [6]; MDCK-MDR1, pH 7.4) was 7.23 ×10⁻⁶ cm/s, the efflux ratio (in vitro [6]; MDCK-MDR1, pH 7.4) was 0.68 and the Papp A→B (in vitro [6]) was 10.6 ×10⁻⁶ cm/s. It also gave an IC50 (CYP2C19) of 8.6 µM and an IC50 (CYP3A4) of 5.33 µM.
With COC(=O)c1ccc(C(=O)OC2CCN(c3nc(=O)c4cc(C(F)(F)F)cc([N+](=O)[O-])c4s3)CC2)cc1 [Compound 2n, Methyl (1-(8-nitro-4-oxo-6-(trifluoromethyl)-4H-benzo[e][1,3]thiazin-2-yl)-piperidin-4-yl) terephthalate] the MIC [1] was 0.063 µM (≈ 33.9 ng/mL) and the CC50 [2] was over 10 µM.
O=C(OC1CCN(c2nc(=O)c3cc(C(F)(F)F)cc([N+](=O)[O-])c3s2)CC1)c1ccccc1F [Compound 2i, 1-(8-Nitro-4-oxo-6-(trifluoromethyl)-4H-benzo[e][1,3]thiazin-2-yl)piperidin-4-yl 2-fluorobenzoate] showed an MIC [1] of at most 0.002 µM and a CC50 [2] of over 10 µM.
With CCOC(=O)C1CCN(c2nc(=O)c3cc(C(F)(F)F)cc([N+](=O)[O-])c3s2)CC1 [Compound 2a, Ethyl 1-(8-nitro-4-oxo-6-(trifluoromethyl)-4H-benzo[e][1,3]thiazin-2-yl)piperidine-4-carboxylate] the MIC [1] was 0.008 µM (≈ 3.45 ng/mL) and the CC50 [2] was over 10 µM.
In the case of Cc1ccc(OC2CCN(c3nc(=O)c4cc(C(F)(F)F)cc([N+](=O)[O-])c4s3)CC2)c(F)c1 [Compound 3i, 2-(4-(2-Fluoro-4-methylphenoxy)piperidin-1-yl)-8-nitro-6-(tri-fluoromethyl)-4H-benzo[e][1,3]thiazin-4-one], the MIC [1] is reported as 0.016 µM (≈ 7.74 ng/mL), the CC50 [2] is reported as over 10 µM and the solubility (physchem) is reported as 1 µg/mL (≈ 2.07 µM).
For CCOC(=O)CN1CCN(c2nc(=O)c3cc(C(F)(F)F)cc([N+](=O)[O-])c3s2)CC1 [Compound 2b, Ethyl 2-(4-(8-nitro-4-oxo-6-(trifluoromethyl)-4H-benzo[e][1,3]thiazin-2-yl)-piperazin-1-yl)acetate], the MIC [1] was 0.02 µM (≈ 8.93 ng/mL) and the CC50 [2] was over 10 µM.
CCCC1CC(N2CCN(c3nc(=O)c4cc(C(F)(F)F)cc([N+](=O)[O-])c4s3)CC2)C(=O)O1 (stereo not shown) [Compound 2g, 8-Nitro-2-(4-(2-oxo-5-propyltetrahydrofuran-3-yl)piperazin-1-yl)-6-(trifluoromethyl)-4H-benzo[e][1,3]thiazin-4-one] gave an MIC [1] of 0.016 µM (≈ 7.78 ng/mL) and a CC50 [2] of over 10 µM.
O=C1CN(c2nc(=O)c3cc(C(F)(F)F)cc([N+](=O)[O-])c3s2)CCN1CC1CCCCC1 [Compound 1c, 2-(4-(Cyclohexylmethyl)-3-oxopiperazin-1-yl)-8-nitro-6-(trifluoromethyl)-4H-benzo-[e][1,3]thiazin-4-one] showed an MIC [1] of 0.017 µM (≈ 8 ng/mL), a CC50 [2] of over 10 µM and a solubility (physchem) of 3.57 µg/mL (≈ 7.59 µM).
With COc1ccc(C(=O)OC2CCN(c3nc(=O)c4cc(C(F)(F)F)cc([N+](=O)[O-])c4s3)CC2)cc1 [Compound 2l, 1-(8-Nitro-4-oxo-6-(trifluoromethyl)-4H-benzo[e][1,3]thiazin-2-yl)piperidin-4-yl 4-methoxybenzoat] the MIC [1] was 0.008 µM (≈ 4.08 ng/mL) and the CC50 [2] was over 10 µM.
O=c1nc(N2CCC(Oc3nccc(C(F)(F)F)n3)CC2)sc2c([N+](=O)[O-])cc(C(F)(F)F)cc12 [Compound 3n, 8-Nitro-6-(trifluoromethyl)-2-(4-((4-(trifluoromethyl)pyrimidin-2-yl)oxy)piperidin-1-yl)-4H-benzo[e][1,3]thiazin-4-one] showed an MIC [1] of 0.004 µM (≈ 2.09 ng/mL).
Cc1ccnc(OC2CCN(c3nc(=O)c4cc(C(F)(F)F)cc([N+](=O)[O-])c4s3)CC2)n1 [Compound 3m, 2-(4-((4-Methylpyrimidin-2-yl)oxy)piperidin-1-yl)-8-nitro-6-(trifluoromethyl)-4H-benzo[e][1,3]thiazin-4-one] showed an MIC [1] of 0.031 µM (≈ 14.5 ng/mL), a CC50 [2] of over 10 µM and a solubility (physchem) of 2.39 µg/mL (≈ 5.11 µM).
O=c1nc(N2CCN(CC3CCCCC3)CC2)sc2c([N+](=O)[O-])cc(C(F)(F)F)cc12 [PBTZ169] showed a Cmax ([7]; lung, iv, 10 mg/kg) of 4210 ng/mL, an MRT inf ([7]; lung, iv, 10 mg/kg) of 4.5 h and a Tmax ([7]; lung, iv, 10 mg/kg) of 4.8 min. For the same compound, the half-life ([7]; lung, iv, 10 mg/kg) was 190 min, the AUC(0-inf) ([7]; lung, po, 100 mg/kg) was 7840 ng·h/mL and the Cmax ([7]; lung, po, 100 mg/kg) was 811 ng/mL. For the same compound, the MRT inf ([7]; lung, po, 100 mg/kg) was 6.5 h, the Tmax ([7]; lung, po, 100 mg/kg) was 30 min and the half-life ([7]; lung, po, 100 mg/kg) was 254 min. It also gave an AUC(0-inf) ([7]; plasma, iv, 10 mg/kg) of 9070 ng·h/mL, an MRT inf ([7]; plasma, iv, 10 mg/kg) of 1.05 h and a Tmax ([7]; plasma, iv, 10 mg/kg) of 4.8 min. It also gave a Vd ([7]; plasma, iv, 10 mg/kg) of 1.15 L/kg, a clearance ([7]; plasma, iv, 10 mg/kg) of 18.3 mL/min/kg and a half-life ([7]; plasma, iv, 10 mg/kg) of 160 min. It also gave a Cmax ([7]; plasma, po, 100 mg/kg) of 3000 ng/mL, an MRT inf ([7]; plasma, po, 100 mg/kg) of 3.7 h and a Tmax ([7]; plasma, po, 100 mg/kg) of 120 min. It also gave a bioavailability ([7]; plasma, po, 100 mg/kg) of 20.8%, a half-life ([7]; plasma, po, 100 mg/kg) of 125 min and a half-life (in vitro [3]) of 11.1 min. For the same compound, the half-life (in vitro [4]) was 14.7 min, the half-life (in vitro [5]) was 14.4 min and the Papp B→A (in vitro [6]; MDCK-MDR1, pH 7.4) was 0.74 ×10⁻⁶ cm/s. It also gave a Papp A→B (in vitro [6]) of 0.74 ×10⁻⁶ cm/s.
